In patent US10829481B2, “Benzimidazole derivatives as modulators of ROR-gamma” (Vitae Pharmaceuticals, LLC, priority 2016, dated 2020):
pIC50, pKi: −log10 of the molar value.

Assays:
[1] = target: full-length RORγt in Jurkat cells (Homo sapiens (Human), UniProt P51449); test: RORγt 5×RORE Assay in Jurkat Cells (Assay 2); type: cell-based; conditions: 5×RORE Nanoluc luciferase reporter
Method: RORγt 5×RORE Assay in Jurkat Cells (Assay 2)
Compounds described herein were tested for RORγ inverse agonist activity in a cell-based, transcriptional activity assay. Secreted Nanoluc® luciferase was used as a reporter for transcriptional activity of the full-length RORγt in Jurkat cells (ATCC, Cat. #TIB-152). […] (Promega, Cat. #N1021) using KpnI and HindIII restriction sites. […] After 5-6 hrs of incubation at 37° C./5% CO2, the cells were collected, resuspended in phenol-red free RPMI media containing 10% (v/v) delipidated FBS (Hyclone, Cat. #SH30855.03) and dispensed into 96-well clear bottom tissue culture plates (CoStar, Cat. #3603), at 80,000 cells per well. Tested compounds were added to the cells in the same media (final concentration of DMSO was 0.1% (v/v)), and the plates were incubated at 37° C./5% CO2 for 16-18 hrs. Luciferase activity in the conditioned supernatants was determined with NanoGlo® assay reagents (Promega, Cat. #N1130).

[2] = target: recombinant RORγ Ligand Binding Domain (LBD) protein (Homo sapiens (Human), UniProt P51449); test: Radio-Ligand RORγ Binding Assay (Assay 1); conditions: competition with 25-hydroxy [26,27-3H]-cholesterol, SPA
recombinant RORγ Ligand Binding Domain (LBD) protein, sequence (P51449 269-508): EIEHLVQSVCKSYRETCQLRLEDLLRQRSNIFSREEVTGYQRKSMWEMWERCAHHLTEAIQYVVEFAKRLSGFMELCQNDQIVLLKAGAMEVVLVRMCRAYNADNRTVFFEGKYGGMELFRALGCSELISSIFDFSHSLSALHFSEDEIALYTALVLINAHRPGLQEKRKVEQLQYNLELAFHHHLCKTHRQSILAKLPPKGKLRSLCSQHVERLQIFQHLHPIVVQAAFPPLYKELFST
Method: Radio-Ligand RORγ Binding Assay (Assay 1)
Compounds described herein were tested for ability to bind to RORγ in a cell-free competition assay with commercially available radio-ligand (RL), 25-hydroxy [26,27-^3H]-cholesterol (PerkinElmer, Cat. #NET674250UC), for a ligand binding site on a recombinant RORγ Ligand Binding Domain (LBD) protein expressed as a 6×His-Glutathione-S-Transferase (GST) fusion. The assay was performed in 96-well SPA plates (PerkinElmer, Cat. #1450-401) in 50 mM HEPES buffer, pH 7.4, containing 150 mM NaCl, 5 mM MgCl2, 10% (v/v) glycerol, 2 mM CHAPS, 0.5 mM β-octylglucopyranoside and 5 mM DTT. Tested compounds were dissolved in DMSO, and semi-log (3.162×) serial dilutions of the compounds were prepared in the same solvent. Two μL of the DMSO solutions were mixed with 28 μL of 8.6 nM 25-hydroxy [26,27-^3H]-cholesterol and 50 μL of 24 nM RORγ LBD. The plate was shaken at 700 rpm for 20 min and incubated for 10 min at rt, after which 40 μL of poly-Lys YSi SPA beads (PerkinElmer, Cat. #RPNQ0010) were added to achieve […] of the beads per well. The plate was incubated on an orbital shaker for 20 min and then for 10 min without agitation at rt. SPA signal for tritium beta radiation was registered on PerkinElmer Microbeta plate reader. […] The percent inhibition vs. concentration data were fit into a four-parameter model, and IC50 values were calculated from the fit as the concentrations corresponding to the inflection points on the dose-response curves. Inhibitory constants (Ki) were calculated using the following equation, where [RL] is the concentration in the assay and KD is a dissociation constant of 25-hydroxy [26,27-^3H]-cholesterol: […]

full-length RORγt in Jurkat cells, sequence (P51449 other isoform, or with tags, fused parts or gaps): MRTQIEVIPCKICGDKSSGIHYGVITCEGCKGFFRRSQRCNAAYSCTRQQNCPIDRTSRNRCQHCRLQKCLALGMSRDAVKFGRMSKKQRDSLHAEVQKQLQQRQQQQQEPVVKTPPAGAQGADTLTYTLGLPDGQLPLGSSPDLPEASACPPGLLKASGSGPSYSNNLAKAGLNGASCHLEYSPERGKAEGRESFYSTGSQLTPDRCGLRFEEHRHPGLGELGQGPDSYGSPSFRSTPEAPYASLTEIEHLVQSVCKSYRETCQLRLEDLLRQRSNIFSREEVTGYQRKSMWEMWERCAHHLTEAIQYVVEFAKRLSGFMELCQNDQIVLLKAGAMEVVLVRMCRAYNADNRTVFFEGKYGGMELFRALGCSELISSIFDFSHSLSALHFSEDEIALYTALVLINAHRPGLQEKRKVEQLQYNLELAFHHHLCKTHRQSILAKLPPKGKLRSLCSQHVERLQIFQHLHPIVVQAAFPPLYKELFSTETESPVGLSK

SMILES	pIC50 [1]	pKi [2]
CCS(=O)(=O)c1ccc(CNC(=O)c2ccc3c(c2)nc([C@H](C)OC)n3Cc2cccc3c2OC(F)(F)O3)cc1 (mixture of isomers) [I-49.1, (S)-1-((2,2-difluorobenzo[d][1,3]dioxol-4-yl)methyl)-N-(4-(ethylsulfonyl)benzyl)-2-(1-methoxyethyl)-1H-benzo[d]imidazole-5-carboxamide and (R)-1-((2,2-difluorobenzo[d][1,3]dioxol-4-yl)methyl)-N-(4-(ethylsulfonyl)benzyl)-2-(1-methoxyethyl)-1H-benzo[d]imidazole-5-carboxamide]	> 7.00	> 7.00
CCS(=O)(=O)c1ccc(CNC(=O)c2ccc3c(c2)nc([C@@H](C)OC)n3Cc2cccc3c2OC(F)(F)O3)cc1 (mixture of isomers) [I-49.2, (S)-1-((2,2-difluorobenzo[d][1,3]dioxol-4-yl)methyl)-N-(4-(ethylsulfonyl)benzyl)-2-(1-methoxyethyl)-1H-benzo[d]imidazole-5-carboxamide and (R)-1-((2,2-difluorobenzo[d][1,3]dioxol-4-yl)methyl)-N-(4-(ethylsulfonyl)benzyl)-2-(1-methoxyethyl)-1H-benzo[d]imidazole-5-carboxamide]	> 7.00	> 7.00
CS(=O)(=O)N1CCC([C@@H](CO)NC(=O)c2ccc3c(c2)nc(C(F)(F)F)n3Cc2cccc3c2OC(F)(F)O3)CC1 (mixture of isomers) [I-164.1, (R)-1-((2,2-difluorobenzo[d][1,3]dioxol-4-yl)methyl)-N-(2-hydroxy-1-(1-(methylsulfonyl)piperidin-4-yl)ethyl)-2-(trifluoromethyl)-1H-benzo[d]imidazole-5-carboxamide and (S)-1-((2,2-difluorobenzo[d][1,3]dioxol-4-yl)methyl)-N-(2-hydroxy-1-(1-(methylsulfonyl)piperidin-4-yl)ethyl)-2-(trifluoromethyl)-1H-benzo[d]imidazole-5-carboxamide]	> 7.00	> 7.00
CS(=O)(=O)N1CCC([C@H](CO)NC(=O)c2ccc3c(c2)nc(C(F)(F)F)n3Cc2cccc3c2OC(F)(F)O3)CC1 (mixture of isomers) [I-164.2, (R)-1-((2,2-difluorobenzo[d][1,3]dioxol-4-yl)methyl)-N-(2-hydroxy-1-(1-(methylsulfonyl)piperidin-4-yl)ethyl)-2-(trifluoromethyl)-1H-benzo[d]imidazole-5-carboxamide and (S)-1-((2,2-difluorobenzo[d][1,3]dioxol-4-yl)methyl)-N-(2-hydroxy-1-(1-(methylsulfonyl)piperidin-4-yl)ethyl)-2-(trifluoromethyl)-1H-benzo[d]imidazole-5-carboxamide]	> 7.00	> 7.00
CCS(=O)(=O)c1ccc([C@H](O)C(=O)Nc2ccc3c(c2)nc(C(F)(F)F)n3Cc2cccc3c2OC(F)(F)O3)cc1 (mixture of isomers) [I-170.1, (S)-N-(1-((2,2-difluorobenzo[d][1,3]dioxol-4-yl)methyl)-2-(trifluoromethyl)-1H-benzo[d]imidazol-5-yl)-2-(4-(ethylsulfonyl)phenyl)-2-hydroxyacetamide and (R)-N-(1-((2,2-difluorobenzo[d][1,3]dioxol-4-yl)methyl)-2-(trifluoromethyl)-1H-benzo[d]imidazol-5-yl)-2-(4-(ethylsulfonyl)phenyl)-2-hydroxyacetamide]	> 7.00	> 7.00
CCS(=O)(=O)c1ccc([C@@H](O)C(=O)Nc2ccc3c(c2)nc(C(F)(F)F)n3Cc2cccc3c2OC(F)(F)O3)cc1 (mixture of isomers) [I-170.2, (S)-N-(1-((2,2-difluorobenzo[d][1,3]dioxol-4-yl)methyl)-2-(trifluoromethyl)-1H-benzo[d]imidazol-5-yl)-2-(4-(ethylsulfonyl)phenyl)-2-hydroxyacetamide and (R)-N-(1-((2,2-difluorobenzo[d][1,3]dioxol-4-yl)methyl)-2-(trifluoromethyl)-1H-benzo[d]imidazol-5-yl)-2-(4-(ethylsulfonyl)phenyl)-2-hydroxyacetamide]	> 7.00	> 7.00
CCS(=O)(=O)c1ccc([C@H](CO)NC(=O)c2ccc3c(c2)nc(C(F)(F)F)n3Cc2cccc3c2OC(F)(F)O3)cc1 [I-11.1, (R)-1-((2,2-difluorobenzo[d][1,3]dioxol-4-yl)methyl)-N-(1-(4-(ethylsulfonyl)phenyl)-2-hydroxyethyl)-2-(trifluoromethyl)-1H-benzo[d]imidazole-5-carboxamide]	> 7.00	> 7.00

The next lines start with the values.

pIC50 [1]	pKi [2]	SMILES
> 7.00	> 7.00	CCS(=O)(=O)c1ccc(CC(=O)Nc2ccc3c(c2)nc(C(F)(F)F)n3Cc2cccc3c2OC(F)(F)O3)cc1 [I-1, N-(1-((2,2-difluorobenzo[d][1,3]dioxol-4-yl)methyl)-2-(trifluoromethyl)-1H-benzo[d]imidazol-5-yl)-2-(4-(ethylsulfonyl)phenyl)acetamide]
> 7.00	> 7.00	CS(=O)(=O)c1ccc(CC(=O)Nc2ccc3c(c2)nc(C(F)(F)F)n3Cc2cccc3c2OC(F)(F)O3)cc1 [I-2, N-(1-((2,2-difluorobenzo[d][1,3]dioxol-4-yl)methyl)-2-(trifluoromethyl)-1H-benzo[d]imidazol-5-yl)-2-(4-(methylsulfonyl)phenyl)acetamide]
> 7.00	> 7.00	O=C(Cc1ccc(S(=O)(=O)CCO)cc1)Nc1ccc2c(c1)nc(C(F)(F)F)n2Cc1cccc2c1OC(F)(F)O2 [I-3, N-(1-((2,2-difluorobenzo[d][1,3]dioxol-4-yl)methyl)-2-(trifluoromethyl)-1H-benzo[d]imidazol-5-yl)-2-(4-((2-hydroxyethyl)sulfonyl)phenyl)acetamide]
> 7.00	> 7.00	COCCS(=O)(=O)c1ccc(CC(=O)Nc2ccc3c(c2)nc(C(F)(F)F)n3Cc2cccc3c2OC(F)(F)O3)cc1 [I-4, N-(1-((2,2-difluorobenzo[d][1,3]dioxol-4-yl)methyl)-2-(trifluoromethyl)-1H-benzo[d]imidazol-5-yl)-2-(4-((2-methoxyethyl)sulfonyl)phenyl)acetamide]
> 7.00	> 7.00	CNS(=O)(=O)c1ccc(CC(=O)Nc2ccc3c(c2)nc(C(F)(F)F)n3Cc2cccc3c2OC(F)(F)O3)cc1 [I-5, N-(1-((2,2-difluorobenzo[d][1,3]dioxol-4-yl)methyl)-2-(trifluoromethyl)-1H-benzo[d]imidazol-5-yl)-2-(4-(N-methylsulfamoyl)phenyl)acetamide]
< 6.00	> 7.00	N#Cc1ccc(CC(=O)Nc2ccc3c(c2)nc(C(F)(F)F)n3Cc2cccc3c2OC(F)(F)O3)cc1 [I-6, 2-(4-cyanophenyl)-N-(1-((2,2-difluorobenzo[d][1,3]dioxol-4-yl)methyl)-2-(trifluoromethyl)-1H-benzo[d]imidazol-5-yl)acetamide]
> 7.00	> 7.00	CCS(=O)(=O)c1ccc(CC(=O)Nc2ccc3c(c2)nc(C2CC2)n3Cc2cccc3c2OC(F)(F)O3)cc1 [I-9, N-(2-cyclopropyl-1-((2,2-difluorobenzo[d][1,3]dioxol-4-yl)methyl)-1H-benzo[d]imidazol-5-yl)-2-(4-(ethylsulfonyl)phenyl)acetamide]
< 6.00	> 7.00	CS(=O)(=O)N1CCC(CC(=O)Nc2ccc3c(c2)nc(C(F)(F)F)n3Cc2cccc3c2OC(F)(F)O3)CC1 [I-10, N-(1-((2,2-difluorobenzo[d][1,3]dioxol-4-yl)methyl)-2-(trifluoromethyl)-1H-benzo[d]imidazol-5-yl)-2-(1-(methylsulfonyl)piperidin-4-yl)acetamide]
